“Also recorded” adds a separate entry of the source. Counter-ions that a name gives are not always drawn.
Legend:
[1] = tested on: marine bacteria (ten strains); experiment: Bio-adhesion assay (crystal violet microplate); assay type: cell-based, marine bacteria isolated from Singapore fouling communities; conditions: for Effect on bacterial adhesion: polystyrene or tissue culture surface as named in the value; for Effect of drugs on adhesion of bacteria: 50 μl of 125 μg ml^−1 drug + 200 μl bacteria, 2 hours
Procedure: The effect of pharmaceuticals on bacterial adhesion was analyzed using a modified microplate method adapted from Shea and Williamson (1990). This method consists of staining the attached bacteria with crystal violet, releasing the stain with sodium desoxycholate, and measuring the resulting absorbance of the crystal violet. The absorbance is proportional to the degree of bacterial adhesion to the surface.
Ten strains of bacteria (strain numbers 1, 4, 9, 14, 18, 20, 27, 28, 29 and 30) were chosen for this study. Flat bottom non-tissue culture treated polystyrene (hydrophobic, Falcon #351172) (referred to as polystyrene) and flat bottom tissue culture treated polystyrene (hydrophilic, Falcon #353072) microplates were used in the analyses. These two types of plates were chosen because they were sterile and offered two different kinds of surfaces to determine the adhesion preferences of the bacteria. Each test was done in duplicate. For the control and blank wells, 50 μl of sterile deionized water were added. For those wells that were to contain drugs, 50 μl of drugs at concentration of 125 μg ml^−1 were added. Then 200 μl of bacteria suspension in sterile seawater, whose absorbance had been adjusted to 0.6 at 600 nm using a spectrophotometer (Beckman), were added. Blanks contained 200 μl of sterile seawater.
The bacteria in suspension were allowed to attach for 2 hours at 28° C. Unattached cells were removed by pipetting out almost all trace of liquid and rinsed three times with 300 μl of sterile seawater each time. The attached cells were stained with 200 μl of crystal violet solution (0.1% w/v) in each well for 5 min. After removing the stain by pipetting, the wells were rinsed twice with 300 μl of sterile deionized water each time. Sodium desoxycholate (200 μl) solution (2% w/v) was then added to each well to extract the crystal violet from the stained cells for 10 min. The absorbance of the extracted solution was read at 590 nm using a microplate reader (Sunrise, Tecan, Switzerland).
The data were analyzed using T-test (Two-sample assuming unequal variances) to determine the significance of the absorbance values of each bacterial strain versus the blanks to determine whether there was adhesion, i.e. increase in absorbance. Each drug effect on adhesion was analyzed by comparing the absorbance of each bacterial strain minus the control blank versus bacteria in presence of drug minus the drug control. When the data is significant, there are bacterial cells attached to the surface in the control but in the presence of drugs, there is no attachment.

[2] = tested on: Balanus amphitrite stage II naupliar larvae; conditions: for LD50: barnacle nauplii, 22 to 24 hours, concentration that caused 50% mortality
Procedure: Pharmaceuticals from the respective manufacturers were treated in the following way. A pill containing a known amount of active ingredient (as stated in product information) was ground in a mortar and pestle and a suspension of 2 mg ml^−1 generated in de-ionized water. This stock solution is stored at −20° C. in 4 ml amber screw cap vials. For the bioassays, 250 ul of stock solution is added to 10 ml of 1 um filtered seawater. This suspension was then sonicated for 10 minutes. Serial dilutions of this 50 μg ml^−1 seawater solution, or suspension, with seawater was done to generate the required range of concentrations.
Stage II naupliar larvae used in tests were obtained from Balanus amphitrite adults collected from inter-tidal rock walls at Kranji mangrove, Singapore. Larvae were collected from a container of adults by attraction to a point source of light and transferred to 500 ml of fresh seawater. Next, larvae were re-concentrated with a fiber optic light and added to assays.
Duplicate assays were conducted in 2 ml micro-centrifuge tubes (Axygen MCT-200-C) in 1.5 ml of filtered seawater for 22 to 24 hours. The assays were repeated for confirmation. There were four controls (vehicle only, 0 μg ml^−1), and 2 tubes of each for each test concentration. The assay was initiated by addition of barnacle nauplii in 50 to 100 μl of seawater.
After 22 to 24 hours of incubation at 25-27° C., solutions containing test animals were transferred to a Bogorov tray and scored as living or dead. Moribund larvae were scored as dead. Results were confirmed by repeating the assay. […] If data were not appropriate for probit analysis, the LC50 was estimated from graphed data.

Bugula neritina larvae = experiment: Bioassay against bryozoan larvae; assay type: in vivo; conditions: crude rank, best (1) to worst (8)
Procedure: Bugula neritina (Phylum Bryozoa, Class Gymnolaemata, Order Cheilostomatida) is a cosmopolitan species of bryozoan, commonly found in most marine fouling communities. The larvae are brooded in ovicells found on the stem of the colonies. When released, the larva will settle quickly on most surfaces, within a few minutes. At 24° C., the settled larvae forms the one-cell ancestrula, and after 48 hours, the lophophore has developed and extended for feeding.
Adult colonies of Bugula neritina were collected from fouling communities growing on the submerged pontoons on a floating fish farm located off Changi, Singapore. Adult animals were maintained in the open-circulation aquarium at St John's island marine laboratory, Singapore. The adults were kept in total darkness for 24 hours. On exposure to light, larvae were released after half an hour. […] Because the larvae will settle quickly, larvae were pipetted directly into test wells in 1 ml of seawater using a graduated glass pipette.
4 replicates were done for each treatment. After 24 hours, larvae were scored as settled, swimming or dead/deformed. The assay plates were usually kept for another 24 hours and checked again, to ascertain that the settled larvae had developed into viable colonies with lophophores. Two trials were repeated for each compound.
Bioassays were carried out using the method described above, in July 2003 during the peak spawning season for Bugula.

barnacle nauplii = experiment: Toxicity of drugs under different light conditions and over time (stability in seawater); assay type: in vivo, Balanus amphitrite; conditions: for Change in toxicity on ageing in seawater, 12L:12D condition: 12 h light and 12 h dark; for Effect of UV on drug toxicity to barnacle nauplii: UV for half an hour
Procedure: Preliminary experiments were carried out to examine the chemical stability of the drugs. 25 ug ml^−1 seawater suspensions of the drugs were prepared, in 3 replicates per condition, 3 replicate tubes containing 15 ml per test tube per prepared for each treatment type. The treatments consisted of: • i. Dark condition: tubes were wrapped in aluminium foil and kept in the dark at all times • ii. 12L:12D condition, where the tubes were subject incubated in a plant growth chamber with light regime of 12 hours light and 12 hours dark. • iii. UV treated tubes were subject to UV for half an hour. […] Sets (1) & (2) were tested at week 0, 1, 2 and after 4 weeks. “UV” set is only assayed after UV treatment. […] Effect of UV

[3] = in words; cited from earlier work
[4] = strain 1 (Rhodovulum), hydrophobic surface (untreated polystyrene)
[5] = strain 4 (Bacillus), hydrophobic surface (untreated polystyrene)
[6] = strain 9 (Bacillus), hydrophobic surface (untreated polystyrene)
[7] = strain 14 (Vibrio), hydrophobic surface (untreated polystyrene)
[8] = strain 18 (Microbacterium), hydrophobic surface (untreated polystyrene)
[9] = strain 20, hydrophobic surface (untreated polystyrene)
[10] = strain 27, hydrophobic surface (untreated polystyrene)
[11] = strain 28, hydrophobic surface (untreated polystyrene)
[12] = strain 29, hydrophobic surface (untreated polystyrene)
[13] = strain 30, hydrophilic surface (tissue culture treated polystyrene)
[14] = 25 ug ml^−1 seawater suspension, after 4 weeks
[15] = 25 ug ml^−1 seawater suspension

Compound: Cc1cc2c(s1)Nc1ccccc1N=C2N1CCN(C)CC1 [ZPX, olanzapine]
- Effect on bacterial adhesion [1]: prevented biofilm formation for almost all strains in the polystyrene surface
- Effect of drugs on adhesion of bacteria [1, 4]: *** (*** p < 0.005)
- Effect of drugs on adhesion of bacteria [1, 5]: * (Significantly less adhesion observed: * p < 0.05)
- Effect of drugs on adhesion of bacteria [1, 6]: *** (*** p < 0.005)
- Effect of drugs on adhesion of bacteria [1, 7]: ** (** p < 0.01)
- Effect of drugs on adhesion of bacteria [1, 8]: * (Significantly less adhesion observed: * p < 0.05)
- Effect of drugs on adhesion of bacteria [1, 9]: *** (*** p < 0.005)
- Effect of drugs on adhesion of bacteria [1, 10]: *** (*** p < 0.005)
- Effect of drugs on adhesion of bacteria [1, 11]: *** (*** p < 0.005)
- Effect of drugs on adhesion of bacteria [1, 12]: * (Significantly less adhesion observed: * p < 0.05)
- Effect of drugs on adhesion of bacteria [1, 13]: * (Significantly less adhesion observed: * p < 0.05)
- LD50 [2]: 505.82 ng/mL
- Prevention of settlement of Bugula larvae (Bugula neritina larvae): 6
- Change in toxicity on ageing in seawater, 12L:12D condition (barnacle nauplii; [14]): marked decrease in toxicity
- Solubility [3]: practically insoluble in water

Compound: CN[C@H]1CC[C@@H](c2ccc(Cl)c(Cl)c2)c2ccccc21.Cl [ZLT, sertraline hydrochloride]
- Effect of drugs on adhesion of bacteria [1, 4]: *** (*** p < 0.005)
- Effect of drugs on adhesion of bacteria [1, 5]: *** (*** p < 0.005)
- Effect of drugs on adhesion of bacteria [1, 6]: * (Significantly less adhesion observed: * p < 0.05)
- Effect of drugs on adhesion of bacteria [1, 9]: *** (*** p < 0.005)
- Effect of drugs on adhesion of bacteria [1, 10]: *** (*** p < 0.005)
- Effect of drugs on adhesion of bacteria [1, 11]: *** (*** p < 0.005)
- Effect of drugs on adhesion of bacteria [1, 13]: *** (*** p < 0.005)
- LD50 [2]: 1.58 ng/mL
- Toxicity to barnacle nauplii ([2]; crude rank, best (1) to worst (8)): 1
- Prevention of settlement of Bugula larvae (Bugula neritina larvae): 1
- Change in toxicity on ageing in seawater, 12L:12D condition (barnacle nauplii; [14]): not altered by any of the treatments applied
- Effect of UV on drug toxicity to barnacle nauplii (barnacle nauplii; [15]): not altered by any of the treatments applied
- Change in toxicity on ageing in seawater, dark condition (barnacle nauplii; [14]): not altered by any of the treatments applied
- Solubility [3]: slightly soluble in water

Compound: Cc1nccn1CC1CCc2c(c3ccccc3n2C)C1=O (stereo not shown) [ZFN, ondansetron hydrochloride]
- Effect on bacterial adhesion ([1]; hydrochloride): prevented biofilm formation for almost all strains in the polystyrene surface; also recorded: increased cell adhesion in the tissue culture surface for strain 30
- Effect of drugs on adhesion of bacteria [1, 5]: ** (** p < 0.01)
- Effect of drugs on adhesion of bacteria [1, 6]: *** (*** p < 0.005)
- Effect of drugs on adhesion of bacteria [1, 7]: * (Significantly less adhesion observed: * p < 0.05)
- Effect of drugs on adhesion of bacteria [1, 8]: * (Significantly less adhesion observed: * p < 0.05)
- Effect of drugs on adhesion of bacteria [1, 9]: ** (** p < 0.01)
- Effect of drugs on adhesion of bacteria [1, 10]: *** (*** p < 0.005)
- Effect of drugs on adhesion of bacteria [1, 11]: *** (*** p < 0.005)
- Effect of drugs on adhesion of bacteria [1, 12]: * (Significantly less adhesion observed: * p < 0.05)
- Effect of drugs on adhesion of bacteria [1, 13]: * (Significantly less adhesion observed: * p < 0.05)
- Effect of drugs on adhesion of bacteria ([1]; strain 30, hydrophobic surface (untreated polystyrene)): * (Significantly less adhesion observed: * p < 0.05)
- LD50 [2]: 468.96 ng/mL
- Prevention of settlement of Bugula larvae (Bugula neritina larvae): 8
- Change in toxicity on ageing in seawater, 12L:12D condition (barnacle nauplii; [14]): increased in toxicity
- Effect of UV on drug toxicity to barnacle nauplii (barnacle nauplii; [15]): reduction in toxicity under UV
- Solubility [3]: soluble in saline and water

Compound: CN1CCN(C(c2ccccc2)c2ccccc2)CC1 [CYZ, Cyclizine hydrochloride]
- Effect on bacterial adhesion ([1]; hydrochloride): did not modify bacterial adhesion on polystyrene; also recorded: marginally increased adhesion for strain 27 in the tissue culture surface
- Effect of drugs on adhesion of bacteria ([1]; strain 27, hydrophilic surface (tissue culture treated polystyrene)): *Incr adhesion
- LD50 [2]: 61.05 ng/mL
- Toxicity to barnacle nauplii and cyprids ([2]; in vivo): toxic to barnacle nauplii and cyprids
- Prevention of settlement of Bugula larvae (Bugula neritina larvae): 5
- Stability under UV and in seawater (barnacle nauplii; other studies carried out by the group): does not breakdown under UV and remains stable after four months in seawater
- Solubility [3]: soluble in water

From patent US20060110456A1, “Method for biocidal and/or biostatic treatment and compositions therefor” (NATIONAL UNIVERSITY OF SINGAPORE, priority 2004, published 2006)
